# Literature values in patent US4699782A (Delalande S.A., priority 1983, dated 1987).
# Conditions: human, in vivo; cited from earlier work
smiles,measurement,value
C#CCN(C)CCCOc1ccc(Cl)cc1Cl [Clorgyline],dose of Tyramine from which hypertensive effects were recorded,≥ 6 mg
